The structures appear in SMILES notation.

In the experiment the test system is HCV replicon (HCV 1b-377-neo replicon cells, Huh7). The experiment can be described thus: HCV replicon cell-based FRET assay. Particulars: Hepatitis C virus, Huh-7. In a few lines: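 Huh7 cells carrying a neo-selectable genotype 1b HCV replicon (~3,000 RNA copies/cell) were seeded at 1.5×10^4 cells/well and treated 4 days at 37 °C (0.5% DMSO final). CC50 was read by alamar Blue (4 h, ex 530/em 580 nm). Lysates with 10 μM EDANS/DABCYL NS3 protease FRET peptide were read kinetically (ex 340/em 490 nm, 25 °C, ~15 min) for % inhibition.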
(Replicon systems follow genome replication, usually without infectious particles.)
Regarding `COc1ccc2c(O[C@@H]3C[C@H]4C(=O)N[C@]5(C(=O)NS(=O)(=O)C6CC6)C[C@H]5/C=C\CCCSC(C)(C)[C@H](NC(=O)OC(C)(C)C)C(=O)N4C3)nccc2c1` [Compound 80, (1S,4R,6S,14R,18R)-[7-cis-4-Cyclopropanesulfonylaminocarbonyl-13,13-dimethyl-18-(6-methoxyisoquinolin-1-yloxy)-2,15-dioxo-12-thia-3,16-diaza-tricyclo[14.3.0.0^4,6]nonadec-7-en-14-yl]carbamic acid, tert-butyl ester], the EC50 lay within 50 to 500 nM.
Under `COc1ccc2c(OC3CC4C(=O)NC5(C(=O)NS(=O)(=O)C6CC6)CC5C=CCCCSC(C)(C)C(NC(=O)NC(C)(C)C)C(=O)N4C3)nccc2c1` (stereo not drawn) [Compound 81] stands 50 to 500 nM; under `COc1ccc2c(OC3CC4C(=O)NC5(C(=O)NS(=O)(=O)C6CC6)CC5C=CCCCSC(C)(C)C(NC(=O)NC5CCCC5)C(=O)N4C3)nccc2c1` (stereo not drawn) [Compound 82], 50 to 500 nM; under `COc1ccc2c(OC3CC4C(=O)NC5(C(=O)NS(=O)(=O)C6CC6)CC5C=CCCCSC(C)(C)C(N)C(=O)N4C3)nccc2c1` (stereo not drawn) [Compound 83], 5000 to 50000 nM.
Regarding `COc1ccc2c(O[C@@H]3C[C@H]4C(=O)N[C@]5(C(=O)NS(=O)(=O)C6CC6)C[C@H]5/C=C\CCCOC[C@H](NC(=O)OC(C)(C)C)C(=O)N4C3)nccc2c1` [Compound 85, (1S,4R,6S,14S,18R)-[7-cis-4-Cyclopropanesulfonylaminocarbonyl-18-(6-methoxy-isoquinolin-1-yloxy)-2,15-dioxo-12-oxa-3,16-diaza-tricyclo[14.3.0.0^4,6]nonadec-7-en-14-yl]-carbamic acid, tert-butyl ester], the 50% effective concentration (EC50) is below 50 nM.
`COc1ccc2c(OC3CC4C(=O)NC5(C(=O)NS(=O)(=O)C6CC6)CC5C=CCCCOCC(NC(=O)NC(C)(C)C)C(=O)N4C3)nccc2c1` (stereo not drawn) [Compound 86] showed a half-maximal effective concentration (EC50) below 50 nM.
`COc1ccc2c(OC3CC4C(=O)NC5(C(=O)NS(=O)(=O)C6CC6)CC5C=CCCCOCC(NC(=O)NC5CCCC5)C(=O)N4C3)nccc2c1` (stereo not drawn) [Compound 87] had an EC50 below 50 nM.
As to `COc1ccc2c(OC3CC4C(=O)NC5(C(=O)NS(=O)(=O)C6CC6)CC5C=CCCCOCC(NC(=O)OCC(C)(C)C)C(=O)N4C3)nccc2c1` (stereo not drawn) [Compound 88], the EC50 is below 50 nM.
Under `COc1ccc2c(OC3CC4C(=O)NC5(C(=O)NS(=O)(=O)C6CC6)CC5C=CCCCOCC(NC(=O)OC(C)C)C(=O)N4C3)nccc2c1` (stereo not drawn) [Compound 89] stands below 50 nM.
Under `COc1ccc2c(OC3CC4C(=O)NC5(C(=O)NS(=O)(=O)C6CC6)CC5C=CCCCOCC(NC(=O)OC5CCCC5)C(=O)N4C3)nccc2c1` (stereo not drawn) [Compound 90] stands below 50 nM.
Under `COc1ccc2c(OC3CC4C(=O)NC5(C(=O)NS(=O)(=O)C6CC6)CC5C=CCCCOCC(NC(=O)NC(C)(C)C)C(=O)N4C3)nc(-c3ccccc3)cc2c1` (stereo not drawn) [Compound 92] stands below 50 nM.
As to `COc1ccc2c(OC3CC4C(=O)NC5(C(=O)NS(=O)(=O)C6CC6)CC5C=CCCCOCC(NC(=O)N5CCCC5)C(=O)N4C3)nc(-c3ccccc3)cc2c1` (stereo not drawn) [Compound 93], the 50% effective concentration (EC50) is below 50 nM.
Compound `COc1ccc2c(OC3CC4C(=O)NC5(C(=O)NS(=O)(=O)C6CC6)CC5C=CCCCOCC(NC(=O)OC5CCCC5)C(=O)N4C3)nc(-c3ccccc3)cc2c1` (stereo not drawn) [Compound 94] registered an EC50 below 50 nM.
Then `COc1ccc2c(OC3CC4C(=O)NC5(C(=O)NS(=O)(=O)C6CC6)CC5C=CCCCOCC(NC(=O)OCC(C)(C)C)C(=O)N4C3)nc(-c3ccccc3)cc2c1` (stereo not drawn) [Compound 95], with below 50 nM; and `COc1ccc2c(OC3CC4C(=O)NC5(C(=O)NS(=O)(=O)C6CC6)CC5C=CCCCOCC(NC(=O)OC(C)C)C(=O)N4C3)nc(-c3ccccc3)cc2c1` (stereo not drawn) [Compound 96], with below 50 nM; and `COc1ccc2c(OC3CC4C(=O)NC5(C(=O)NS(=O)(=O)C6CC6)CC5C=CCOCCCC(NC(=O)OC(C)C)C(=O)N4C3)nc(-c3ccccc3)cc2c1` (stereo not drawn) [Compound 98], with below 50 nM.
Under `COc1ccc2c(OC3CC4C(=O)NC5(C(=O)NS(=O)(=O)C6CC6)CC5C=CCOCCCC(NC(=O)OC5CCCC5)C(=O)N4C3)nc(-c3ccccc3)cc2c1` (stereo not drawn) [Compound 99] stands below 50 nM; under `COc1ccc2c(OC3CC4C(=O)NC5(C(=O)NS(=O)(=O)C6CC6)CC5C=CCOCCCC(NC(=O)N5CCCC5)C(=O)N4C3)nc(-c3ccccc3)cc2c1` (stereo not drawn) [Compound 100], below 50 nM; under `COc1ccc2c(OC3CC4C(=O)NC5(C(=O)NS(=O)(=O)C6CC6)CC5C=CCOCCCC(NC(=O)NC(C)(C)C)C(=O)N4C3)nc(-c3ccccc3)cc2c1` (stereo not drawn) [Compound 102], below 50 nM.
Then `COc1ccc2c(OC3CC4C(=O)NC5(C(=O)NS(=O)(=O)C6CC6)CC5C=CCOCCCC(NC(=O)OCC(C)(C)C)C(=O)N4C3)nc(-c3ccccc3)cc2c1` (stereo not drawn) [Compound 103], with below 50 nM; and `COc1ccc2c(OC3CC4C(=O)NC5(C(=O)NS(=O)(=O)C6CC6)CC5C=CCOCCCC(NC(=S)NC5CC5)C(=O)N4C3)nc(-c3ccccc3)cc2c1` (stereo not drawn) [Compound 104], with 50 to 500 nM; and `COc1ccc2c(OC3CC4C(=O)NC5(C(=O)NS(=O)(=O)C6CC6)CC5C=CCOCCCC(NC(=O)Nc5ccc(C#N)cc5)C(=O)N4C3)nc(-c3ccccc3)cc2c1` (stereo not drawn) [Compound 105], with 50 to 500 nM.
`COc1ccc2c(OC3CC4C(=O)NC5(C(=O)NS(=O)(=O)C6CC6)CC5C=CCOCCCC(NC(=O)N5CCNC5=O)C(=O)N4C3)nc(-c3ccccc3)cc2c1` (stereo not drawn) [Compound 106] displayed a 50% effective concentration (EC50) of 500 to 5000 nM.
Under `COc1ccc2c(OC3CC4C(=O)NC5(C(=O)NS(=O)(=O)C6CC6)CC5C=CCCCOCC(NC(=O)NC(C)(C)C)C(=O)N4C3)nc(-c3ccc(N(C)C)cc3)cc2c1` (stereo not drawn) [Compound 108] stands below 50 nM.
As to `COc1ccc2c(OC3CC4C(=O)NC5(C(=O)NS(=O)(=O)C6CC6)CC5C=CCCCOCC(NC(=O)OC(C)C)C(=O)N4C3)nc(-c3ccc(N(C)C)cc3)cc2c1` (stereo not drawn) [Compound 109], the 50% effective concentration (EC50) was below 50 nM.
`COc1ccc2c(OC3CC4C(=O)NC5(C(=O)NS(=O)(=O)C6CC6)CC5C=CCCCOCC(NC(=O)OC5CCCC5)C(=O)N4C3)nc(-c3ccc(N(C)C)cc3)cc2c1` (stereo not drawn) [Compound 110] yielded an EC50 below 50 nM.
`COc1ccc2c(OC3CC4C(=O)NC5(C(=O)NS(=O)(=O)C6CC6)CC5C=CCCCOCC(NC(=O)N5CCCC5)C(=O)N4C3)nc(-c3ccc(N(C)C)cc3)cc2c1` (stereo not drawn) [Compound 111] showed an EC50 below 50 nM.
In turn, `CNc1ccc(-c2cc3cc(OC)ccc3c(OC3CC4C(=O)NC5(C(=O)NS(=O)(=O)C6CC6)CC5C=CCOCCCC(NC(=O)OC(C)(C)C)C(=O)N4C3)n2)cc1` (stereo not drawn) [Compound 113] registered an EC50 below 50 nM.
Then `COc1ccc2c(OC3CC4C(=O)NC5(C(=O)NS(=O)(=O)C6CC6)CC5C=CCOCCCC(NC(=O)OC(C)(C)C)C(=O)N4C3)nc(-c3ccc(N(C)C=O)cc3)cc2c1` (stereo not drawn) [Compound 114], with below 50 nM; and `COc1ccc2c(OC3CC4C(=O)NC5(C(=O)NS(=O)(=O)C6(C)CC6)CC5C=CCCCSCC(NC(=O)OC(C)(C)C)C(=O)N4C3)nccc2c1` (stereo not drawn) [Compound 115], with below 50 nM.
Compound `COc1ccc2c(OC3CC4C(=O)NC5(C(=O)NS(=O)(=O)C6CC6)CC5C=CCCCSCC(N)C(=O)N4C3)nccc2c1` (stereo not drawn) [Compound 117] returned a concentration for a half-maximal effect (EC50) of 50 to 500 nM.
Then `CCSC(=O)NC1CCCCCC=CC2CC2(C(=O)NS(=O)(=O)C2CC2)NC(=O)C2CC(Oc3nccc4ccccc34)CN2C1=O` (stereo not drawn) [Compound 118], with below 50 nM; and `O=CNC1CCCCCC=CC2CC2(C(=O)NS(=O)(=O)C2CC2)NC(=O)C2CC(Oc3nccc4ccccc34)CN2C1=O` (stereo not drawn) [Compound 119], with 50 to 500 nM; and `CCC1(S(=O)(=O)NC(=O)C23CC2C=CCCCSCC(NC(=O)OC(C)(C)C)C(=O)N2CC(Oc4nccc5cc(OC)ccc45)CC2C(=O)N3)CC1` (stereo not drawn) [Compound 121], with below 50 nM.
Then `CC1(COC(=O)NC2CCCCCC=CC3CC3(C(=O)NS(=O)(=O)C3CC3)NC(=O)C3CC(Oc4nccc5ccccc45)CN3C2=O)CC1` (stereo not drawn) [Compound 122], with below 50 nM; and `CC(=O)C(C)(C)OC(=O)NC1CCCCCC=CC2CC2(C(=O)NS(=O)(=O)C2CC2)NC(=O)C2CC(Oc3nccc4ccccc34)CN2C1=O` (stereo not drawn) [Compound 123], with 50 to 500 nM; and `CC(C)(OC(=O)NC1CCCCCC=CC2CC2(C(=O)NS(=O)(=O)C2CC2)NC(=O)C2CC(Oc3nccc4ccccc34)CN2C1=O)C(Cl)(Cl)Cl` (stereo not drawn) [Compound 124], with below 50 nM.
Under `CCC(C)(C)OC(=O)NC1CCCCCC=CC2CC2(C(=O)NS(=O)(=O)C2CC2)NC(=O)C2CC(Oc3nccc4ccccc34)CN2C1=O` (stereo not drawn) [Compound 125] stands below 50 nM; under `CC(C)(C)NC(=O)N[C@H]1CCCCC/C=C\[C@@H]2C[C@@]2(C(=O)NS(=O)(=O)C2CC2)NC(=O)[C@@H]2C[C@@H](Oc3nccc4ccccc34)CN2C1=O` [Compound 126], below 50 nM.
`O=C(NC1CCCC1)NC1CCCCCC=CC2CC2(C(=O)NS(=O)(=O)C2CC2)NC(=O)C2CC(Oc3nccc4ccccc34)CN2C1=O` (stereo not drawn) [Compound 127] registered an EC50 below 50 nM.
`CC(C)NC(=O)NC1CCCCCC=CC2CC2(C(=O)NS(=O)(=O)C2CC2)NC(=O)C2CC(Oc3nccc4ccccc34)CN2C1=O` (stereo not drawn) [Compound 128] displayed a half-maximal effective concentration (EC50) below 50 nM.
Then `CC(C)(C)CC(C)(C)NC(=O)NC1CCCCCC=CC2CC2(C(=O)NS(=O)(=O)C2CC2)NC(=O)C2CC(Oc3nccc4ccccc34)CN2C1=O` (stereo not drawn) [Compound 129], with below 50 nM; and `CC(C)(C)OC(=O)NC1CCCCCC=CC2CC2(C(=O)NS(=O)(=O)C2CC2)NC(=O)C2CC(Oc3nccc4c(Cl)cccc34)CN2C1=O` (stereo not drawn) [Compound 130], with below 50 nM.
Then `COc1ccc2c(OC3CC4C(=O)NC5(C(=O)NS(=O)(=O)C6CC6)CC5C=CCCCCCC(NC(=O)OC(C)(C)C)C(=O)N4C3)nccc2c1F` (stereo not drawn) [Compound 132], with below 50 nM; and `COc1cccc2c(OC3CC4C(=O)NC5(C(=O)NS(=O)(=O)C6CC6)CC5C=CCCCCCC(NC(=O)OC(C)(C)C)C(=O)N4C3)nccc12` (stereo not drawn) [Compound 133], with below 50 nM.

A word on the EC50: it is the concentration at which the effect is half-maximal. Read a high EC50 as a less potent agent.

Source of the values: patent publication US7173004B2, “Macrocyclic isoquinoline peptide inhibitors of hepatitis C virus” (Bristol-Myers Squibb Company, priority 2003, dated 2007).
